Laboratory results: patent US20190085024A1, “Alpha-Ketoamide Inhibitors Of Cysteine Proteases” (Phelix Therapeutics, priority 2017, published 2019)
*1 amine or outer side, *2 acyl side, *3 side chain or, on linkers, in order; H or OH if unused. Where a SMILES comes first, the peptide text is derived from it. [ ]: non-standard residue; d: D form. The star is where a group is joined. ξ: configuration not given here. ξ3Amino2oxobutanoyl = CC(N[*:1])C(=O)C(=O)[*:2]; 2Nal = N[CH](Cc1ccc2ccccc2c1)C(=O)O; Cbz = O=C(OCc1ccccc1)*

What was measured:
[1] = target: Cathepsin L (Homo sapiens, UniProt P07711); assay: Cathepsin L enzyme assay; format: biochemical; conditions: Ki by Morrison equation; pH 5.5, substrate Z-Phe-Arg-Amc; read-out: Cat L
Sequence of Cathepsin L (P07711 114-333, species assumed): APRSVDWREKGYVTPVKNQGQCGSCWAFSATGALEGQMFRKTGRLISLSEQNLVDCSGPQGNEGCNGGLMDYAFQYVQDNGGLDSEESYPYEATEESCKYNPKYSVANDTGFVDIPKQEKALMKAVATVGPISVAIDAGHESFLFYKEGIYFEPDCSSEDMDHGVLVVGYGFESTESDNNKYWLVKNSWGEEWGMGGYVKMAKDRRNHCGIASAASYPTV
Text: Two wells contained DMSO only for controls.
Velocity was converted to μM/sec.

[2] = target: Cathepsin B (Homo sapiens, UniProt P07858); assay: Cathepsin B enzyme assay; conditions: Cat B (μM), Ki by Morrison equation; pH 6.0, substrate Z-Phe-Arg-Amc
[3] = target: Calpain; assay: Calpain enzyme assay; format: biochemical; conditions: Ki by Morrison equation; pH 7.5, 5 mM CaCl2
[4] = test system: MERS WT; assay: microbe, parasite or virus in culture; format: cell-based; conditions: Middle East respiratory syndrome-related coronavirus, read-out: MERS WT (μM)

Row | SMILES | Ki [1] | Ki [2] | Ki [3] | IC50 [4]
1 | CC(NC(=O)C(Cc1ccccc1)NC(=O)Cc1ccccc1)C(=O)C(=O)NC(Cc1ccccc1C(F)(F)F)C(=O)NC(Cc1ccc(-c2ccccc2)cc1)C(N)=O (centres unmarked) [PHELIX265, N-(1-((3-([1,1′-biphenyl]-4-yl)-1-amino-1-oxopropan-2-yl)amino)-1-oxo-3-(2-(trifluoromethyl)phenyl)propan-2-yl)-2-oxo-3-(3-phenyl-2-(2-phenylacetamido)propanamido)butanamide] | 302 nM | > 10 µM | > 10000 nM | 2.2 µM
2 | C=CCOC(=O)NCCCCC(NC(=O)C(=O)C(NC(=O)C(CC(C)C)NC(=O)C(Cc1ccccc1)NC(=O)OCc1ccccc1)C(C)CC)C(N)=O (centres unmarked) [PHELIX269, benzyl (15-(sec-butyl)-11-carbamoyl-18-isobutyl-5,13,14,17,20-pentaoxo-22-phenyl-4-oxa-6,12,16,19-tetraazadocos-1-en-21-yl)carbamate] | 4.13 nM | 0.763 µM | 4.34 nM | > 30 µM
3 | CC(C)CC(NC(=O)C(Cc1ccccc1)NC(=O)OCc1ccccc1)C(=O)NC(C)C(=O)C(=O)NCC(=O)NC(Cc1ccc2ccccc2c1)C(N)=O (centres unmarked) [PHELIX258, benzyl (1-amino-12-isobutyl-9-methyl-2-(naphthalen-2-ylmethyl)-1,4,7,8,11,14-hexaoxo-16-phenyl-3,6,10,13-tetraazahexadecan-15-yl)carbamate] (Cbz-FL[ξ3Amino2oxobutanoyl]G[2Nal]-NH2; configuration not given here) | 6.14 nM | 0.42 µM | 1.9 nM | –
4 | CC(NC(=O)C(Cc1ccccc1)NC(=O)Cc1ccccc1)C(=O)C(=O)NC(Cc1ccccc1F)C(=O)NC(Cc1ccc(-c2ccccc2)cc1)C(N)=O (centres unmarked) [PHELIX263, N-(1-((3-([1,1′-biphenyl]-4-yl)-1-amino-1-oxopropan-2-yl)amino)-3-(2-fluorophenyl)-1-oxopropan-2-yl)-2-oxo-3-(3-phenyl-2-(2-phenylacetamido)propanamido)butanamide] | 0.06 nM | 0.6 µM | > 10000 nM | 0.99 µM
5 | CCC(C)C(NC(=O)C(=O)C(C)NC(=O)C(Cc1cccc(C(F)(F)F)c1)NC(=O)Cc1ccccc1)C(=O)NC(C)(C)C(=O)O (centres unmarked) [PHELIX170, 5-(sec-butyl)-2,2,9-trimethyl-4,7,8,11,14-pentaoxo-15-phenyl-12-(3-(trifluoro-methyl)benzyl)-3,6,10,13-tetraazapentadecanoic acid] | 1190 nM | 0.022 µM | 59700 nM | –
6 | CC(C)C[C@H](NC(=O)C(c1ccccc1)c1ccccc1)C(=O)NC(C)C(=O)C(=O)NCC(=O)N[C@@H](Cc1ccc2ccccc2c1)C(N)=O (some centres unmarked) [PHELIX251, N-(4-((2-((1-amino-3-(naphthalen-2-yl)-1-oxopropan-2-yl)amino)-2-oxoethyl)amino)-3,4-dioxobutan-2-yl)-2-(2,2-diphenylacetamido)-4-methylpentanamide] | 1.4 nM | 0.106 µM | 25 nM | > 30 µM
7 | CCC(C)C(NC(=O)C(=O)C(C)NC(=O)[C@H](Cc1cncs1)NC(=O)Cc1ccccc1)C(=O)NC(C)(C)C(=O)O (stereo partly drawn) [PHELIX173, (12S)-5-(sec-butyl)-2,2,9-trimethyl-4,7,8,11,14-pentaoxo-15-phenyl-12-(thiazol-5-ylmethyl)-3,6,10,13-tetraazapentadecanoic acid] | 3330 nM | 0.72 µM | > 100000 nM | –
8 | CCC(C)C(NC(=O)C(CC(C)C)NC(=O)OCc1ccccc1)C(=O)C(=O)NC(CCCNC(N)=O)C(=O)NC(Cc1ccc2ccccc2c1)C(N)=O (centres unmarked) [PHELIX315, benzyl (1-((1-((1-((1-amino-3-(naphthalen-2-yl)-1-oxopropan-2-yl)amino)-1-oxo-5-ureidopentan-2-yl)amino)-4-methyl-1,2-dioxohexan-3-yl)amino)-4-methyl-1-oxopentan-2-yl)carbamate] | 0.47 nM | > 10 µM | 1.48 nM | –
9 | CCC(C)C(NC(=O)C(=O)C(C)NC(=O)CCNC(=O)OCc1ccccc1)C(=O)NC(C)(C)C(=O)O (centres unmarked) [PHELIX164, 13-(sec-butyl)-9,16,16-trimethyl-3,7,10,11,14-pentaoxo-1-phenyl-2-oxa-4,8,12,15-tetraazaheptadecan-17-oic acid] | > 1000 nM | 34.6 µM | > 100000 nM | –
10 | CCC(C)C(NC(=O)C(=O)C(Cc1ccccc1)NC(=O)C(Cc1ccccc1)NC(=O)Cc1ccccc1)C(=O)NC(C)(C)C(=O)O (centres unmarked) [PHELIX150, 9,12-dibenzyl-5-(sec-butyl)-2,2-dimethyl-4,7,8,11,14-pentaoxo-15-phenyl-3,6,10,13-tetraazapentadecanoic acid] | 39.2 nM | 0.0303 µM | 5110 nM | –
11 | CC[C@H](C)[C@H](NC(=O)C(=O)C(Cc1ccccc1)NC(=O)C(Cc1ccccc1)NC(=O)Cc1ccccc1)C(=O)N1CCC[C@H]1C(=O)O (some centres unmarked) [PHELIX156, (2-oxo-4-phenyl-3-(3-phenyl-2-(2-phenylacetamido)propanamido)butanoyl)isoleucylproline] | 1.58 nM | 0.0102 µM | 9850 nM | –
12 | CCC(C)C(NC(=O)C(=O)C(C)NC(=O)C(CC(C)C)NC(=O)Cc1ccccc1)C(=O)NC(C)(C)C(=O)O (centres unmarked) [PHELIX171, 5-(sec-butyl)-12-isobutyl-2,2,9-trimethyl-4,7,8,11,14-pentaoxo-15-phenyl-3,6,10,13-tetraazapentadecanoic acid] | 632 nM | 0.56 µM | 3900 nM | –
13 | CC[C@H](C)[C@H](NC(=O)C(=O)C(C)(C)NC(=O)[C@H](Cc1ccccc1)NC(=O)Cc1ccccc1)C(=O)NC(C)(C)C(=O)O [PHELIX160, 12-benzyl-5-(sec-butyl)-2,2,9,9-tetramethyl-4,7,8,11,14-pentaoxo-15-phenyl-3,6,10,13-tetraazapentadecanoic acid] | 63400 nM | 111 µM | 51000 nM | –
14 | CC(NC(=O)C(Cc1ccccc1)NC(=O)Cc1ccccc1)C(=O)C(=O)NC(Cc1ccccc1)C(=O)NC(C)(C)C(=O)O (centres unmarked) [PHELIX157, 5,12-dibenzyl-2,2,9-trimethyl-4,7,8,11,14-pentaoxo-15-phenyl-3,6,10,13-tetraazapentadecanoic acid] | 56.2 nM | 0.0028 µM | 34600 nM | –
15 | CCC(C)C(NC(=O)C(=O)C(C)NC(=O)C(Cc1ccccc1)NC(=O)Cc1ccc(-c2ccccc2)cc1)C(=O)NC(C)(C)C(=O)O (centres unmarked) [PHELIX159, 15-([1,1′-biphenyl]-4-yl)-12-benzyl-5-(sec-butyl)-2,2,9-trimethyl-4,7,8,11,14-pentaoxo-3,6,10,13-tetraazapentadecanoic acid] | 2450 nM | 0.0414 µM | 16600 nM | –
16 | CC(NC(=O)C(Cc1ccccc1)NC(=O)Cc1ccccc1)C(=O)C(=O)NC(CC1CC1)C(=O)NC(C)(C)C(=O)O (centres unmarked) [PHELIX166, 12-benzyl-5-(cyclopropylmethyl)-2,2,9-trimethyl-4,7,8,11,14-pentaoxo-15-phenyl-3,6,10,13-tetraazapentadecanoic acid] | 586 nM | 0.0081 µM | > 100000 nM | –
17 | CC(NC(=O)C(Cc1ccccc1)NC(=O)Cc1ccccc1)C(=O)C(=O)NC(Cc1ccc(F)cc1)C(=O)NC(Cc1ccc(-c2ccccc2)cc1)C(N)=O (centres unmarked) [PHELIX262] | 0.04 nM | 0.435 µM | > 10000 nM | –
18 | CCC(C)C(NC(=O)C(=O)C(C)NC(=O)Cc1ccccc1)C(=O)NC(C)(C)C(=O)O (centres unmarked) [PHELIX132, 2-methyl-2-(3-methyl-2-(2-oxo-3-(2-phenylacetamido)butanamido)pentanamido)propanoic acid] | 134000 nM | 702 µM | – | –
19 | CCC(C)C(NC(=O)C(=O)C(C)NC(=O)C(Cc1ccc(C(F)(F)F)cc1)NC(=O)Cc1ccccc1)C(=O)NC(C)(C)C(=O)O (centres unmarked) [PHELIX168, 5-(sec-butyl)-2,2,9-trimethyl-4,7,8,11,14-pentaoxo-15-phenyl-12-(4-(trifluoro-methyl)benzyl)-3,6,10,13-tetraazapentadecanoic acid] | 1270 nM | 0.519 µM | – | –
20 | CCCC(NC(=O)C(=O)C(C)NC(=O)C(Cc1ccccc1)NC(=O)Cc1ccccc1)C(=O)NC(C)(C)C(N)=O (centres unmarked) [PHELIX243, N-(1-amino-2-methyl-1-oxopropan-2-yl)-2-(2-oxo-3-(3-phenyl-2-(2-phenylacetamido)propanamido)butanamido)pentanamide] | 5580 nM | > 10 µM | > 10000 nM | –
21 | CCC(C)C(NC(=O)C(=O)C(C)NC(=O)C(Cc1ccc(-c2ccccc2)cc1)NC(=O)Cc1ccccc1)C(=O)NC(C)(C)C(=O)O (centres unmarked) [PHELIX165, 12-([1,1′-biphenyl]-4-ylmethyl)-5-(sec-butyl)-2,2,9-trimethyl-4,7,8,11,14-pentaoxo-15-phenyl-3,6,10,13-tetraazapentadecanoic acid] | 453 nM | 0.0736 µM | – | –
22 | CCC(C)C(NC(=O)C(=O)C(C)NC(=O)C(Cc1ccccc1)NC(=O)Cc1ccccc1)C(=O)NC(C)(C)C(=O)O (centres unmarked) [PHELIX149, 12-benzyl-5-(sec-butyl)-2,2,9-trimethyl-4,7,8,11,14-pentaoxo-15-phenyl-3,6,10,13-tetraazapentadecanoic acid] | 816 nM | 0.0318 µM | > 100000 nM | –
23 | CC[C@H](C)[C@H](NC(=O)C(=O)C(Cc1ccccc1)NC(=O)C(Cc1ccccc1)NC(=O)Cc1ccccc1)C(=O)N1CSCC1C(=O)O (some centres unmarked) [PHELIX174, 3-((2-oxo-4-phenyl-3-(3-phenyl-2-(2-phenylacetamido)propanamido)butanoyl)isoleucyl)thiazolidine-4-carboxylic acid] | 461 nM | 0.157 µM | – | –
24 | CCC(C)C(NC(=O)C(=O)C(C)NC(=O)C(Cc1ccccc1)NC(=O)Cc1ccc2ccccc2c1)C(=O)NC(C)(C)C(=O)O (centres unmarked) [PHELIX161, 12-benzyl-5-(sec-butyl)-2,2,9-trimethyl-15-(naphthalen-2-yl)-4,7,8,11,14-pentaoxo-3,6,10,13-tetraazapentadecanoic acid] | 1990 nM | 0.0549 µM | – | –
